Measurements as given in patent US20230173083A1, “ALBUMIN-BINDING PRODRUG FOR PREVENTING OR TREATING CANCER AND PHARMACEUTICAL COMPOSITION INCLUDING THE SAME” (KOREA INSTITUTE OF SCIENCE AND TECHNOLOGY, priority 2021, published 2023).
No end group written: not given here. DOX = doxorubicin

Columns and labels:
HSA = HSA (Homo sapiens, UniProt P02768); test: Formation of albumin-prodrug conjugate with HSA (SDS-PAGE, MALDI-TOF, RP-HPLC); assay type: binding; conditions: for formation of conjugate with HSA (SDS-PAGE band shift to 50-75 kDa): 1% HSA in PBS
Method: (§1) To this end, a PBS solution (1 ml) containing 1% albumin (HSA, MSA or BSA) or 1% blocked albumin (blocked HSA, MSA or BSA) was added to 1 mg of the prodrug (Al-ProD) synthesized in Example 1 and incubated at room temperature for various times (0 h, 5 min, and 1 h). After completion of the incubation, samples were analyzed via SDS-PAGE and MALDI-TOF mass spectrometry.
(§2) τ-maleimido butyric acid was added to 1% albumin (HSA, MSA or BSA) for 1 h to block the thiol group of the albumin. In the “Blocking” row in the table of FIG. 5, the plus signs (+) represent the use of blocked albumin.

BSA = BSA (Bos taurus, UniProt P02769); test: Formation of albumin-prodrug conjugate with BSA (SDS-PAGE); assay type: binding, bovine; conditions: 1 h; for formation of conjugate with BSA (SDS-PAGE band shift to 50-75 kDa): 1% BSA in PBS, room temperature
Method: as §1, §2

MSA = MSA (Mus musculus, UniProt P07724); test: Formation of albumin-prodrug conjugate with MSA (SDS-PAGE); assay type: binding; conditions: 1 h; for formation of conjugate with MSA (SDS-PAGE band shift to 50-75 kDa): 1% MSA in PBS, room temperature
Method: as §1, §2

[1] = Toxicity (body weight, organ histology) in cancer animal models; assay type: in vivo, BALB/c nude mice
Method: (§3) Specifically, all animal experiments were conducted in accordance with the guidelines approved by the Institutional Animal Care and Use Committee of Korea Institute of Science and Technology (KIST). BALB/c nude mice (5.5 weeks old, 20-25 g, male) purchased from Nara Bio INC (Gyeonggi-do, Korea) were used as animal models. 1×10^7 MDA-MB-231 cells were inoculated into the left thigh of each of the mice (n=6) to construct establish a cancer animal model. 5 weeks after inoculation, experiments were conducted when cancer volumes were 250-300 mm^3.
(§4) Changes in body weight and cancer tissue volume of each group were measured and survivals were analyzed every two days from immediately after injection (day 0). The cancer tissue volume (V; mm^3) was calculated as 0.53 × largest diameter × (smallest diameter)^2. After 20 days, each group was euthanized. Major organs (liver, lung, spleen, kidney, and heart) and cancer tissues were excised and sliced into 10 µm thick sections for histological assays.
(§5) Specifically, the tissues were fixed with 10% formalin, embedded in paraffin, and sectioned to a thickness of 10 µm. The tissue sections were stained with H&E, terminal deoxynucleotidyl transferase dUTP nick-end labeling (TUNEL), and 4,6-diamidino-2-phenylindole (DAPI, Sigma-Aldrich). Structural changes and toxicities in the tissue sections were evaluated using a ZEISS light microscope or fluorescence microscope.
(§6) Significance was indicated by *P < 0.05, **P < 0.01, ***P < 0.001.

[2] = test system: MDA-MB-231 cancer tissues; test: Tumor accumulation by NIRF imaging and CLSM in cancer animal models; assay type: in vivo, BALB/c nude mice
Method: as §3, with “All” for “Specifically, all”
(§7) After administration of the drugs, noninvasive near-infrared fluorescence (NIRF) imaging data were obtained using an in vivo fluorescence imaging system (IVIS Luminar III) to assess the in vivo tumor accumulation of the prodrug (Al-ProD). The areas under the curves of the time-concentration curves (AUCs) corresponding to the near-infrared data were calculated using Origin 2020 software.
Animal models were sacrificed 12 h after injection of the drugs and organs (liver, lung, spleen, kidney, and heart) and cancer tissues were excised therefrom. The amounts of the drugs remaining in the major organs and cancer tissues were calculated via fluorescence imaging using IVIS Luminar III. The fluorescence intensities were quantified using the Living Image software (PerkinElmer, USA) and plotted.
The organs and cancer tissues excised from the animal models were sliced into 10 µm thick sections and treated with DAPI solution for 10 min to stain the cell nuclei blue. The fluorescence of DOX or DAPI from the sections was observed using a confocal laser scanning microscope (CLSM).
as §6

[3] = test system: MDA-MB-231 cancer tissues; test: Anticancer efficacy in MDA-MB-231 cancer animal models; assay type: in vivo, BALB/c nude mice; conditions: for survival / cancer volume: equimolar to 3 mg/kg doxorubicin, tail vein; for cancer volume: FIG. 21, day not given
Method: as §3, §4, §5, §6

FIG. 16 = test: FIG. 16
From the text: Table printed on a drawing sheet, FIG. 16
First reader's note: The table stands beside a plasma concentration (%) versus time plot; the AUC cells hold the value ± its error and no AUC unit is printed.

[4] = Pharmacokinetics after intravenous administration to cancer animal models; assay type: in vivo, BALB/c nude mice
Method: as §3, with “All” for “Specifically, all”
as §7, §6

[5] = test system: rat cardiomyocytes (H9C2); test: Cytotoxicity (CCK-8) in normal cells; assay type: cell-based; conditions: 48 h
Method: (§8) An in vitro cell experiment was conducted using breast cancer cells (MDA-MB-231) and rat cardiomyocytes (H9C2) to determine the cancer cell-specific cytotoxicity of the albumin-prodrug conjugate (Al-ProD+HSA). Specifically, cells were cultured and maintained in Dulbecco’s modified Eagle’s medium (DMEM) supplemented with 10% fetal bovine serum (FBS) and 1% penicillin/streptomycin in a humid atmosphere at 5% CO2 and 95% air and at 37° C. […]
(§9) Cancer cells (breast cancer cells (MDA-MB-231)) or normal cells (H9C2) were seeded at a density of 2×10^4/well in 96-well cell culture plates. […] Then, each well was treated with […] of CCK solution, followed by incubation for 30 min. The absorbance of each 96-well plate was analyzed using a microplate reader (VERSAmax™, Molecular Devices Corp., Sunnyvale, CA) at 450 nm.

[6] = test system: breast cancer cells (MDA-MB-231); test: Intracellular behavior of DOX by CLSM in breast cancer cells; assay type: cell-based; conditions: MDA-MB-231, 2 µM, 48 h
Method: (§10) 2×10^4 cancer cells (breast cancer cells (MDA-MB-231)) and normal cells (H9C2) were seeded in cell culture plates for confocal microscopy. As a control, MDA-MB-231 cells were treated and incubated with Cat-B-inhibitory siRNA for 24 h to inhibit the expression of cathepsin B (“MDA-MB-231 (+Cat-B inhibitor)”). […] Then, cells were washed with Dulbecco’s phosphate buffered saline (DPBS) to remove residual drug. Cells were treated with a cell fixative for 15 min and nuclei were stained blue by treatment with a DAPI solution for 10 min.

[7] = test system: breast cancer cells (MDA-MB-231); test: Cytotoxicity (CCK-8) in breast cancer cells; assay type: cell-based; conditions: MDA-MB231 cells, 48 h
Method: as §8, §9

[8] = test system: rat cardiomyocytes (H9C2); test: Intracellular behavior of DOX by CLSM in normal cells; assay type: cell-based; conditions: H9C2, 2 µM, 48 h
Method: as §10

[9] = equimolar to 3 mg/kg doxorubicin, tail vein

MSA, sequence (P07724 25-608): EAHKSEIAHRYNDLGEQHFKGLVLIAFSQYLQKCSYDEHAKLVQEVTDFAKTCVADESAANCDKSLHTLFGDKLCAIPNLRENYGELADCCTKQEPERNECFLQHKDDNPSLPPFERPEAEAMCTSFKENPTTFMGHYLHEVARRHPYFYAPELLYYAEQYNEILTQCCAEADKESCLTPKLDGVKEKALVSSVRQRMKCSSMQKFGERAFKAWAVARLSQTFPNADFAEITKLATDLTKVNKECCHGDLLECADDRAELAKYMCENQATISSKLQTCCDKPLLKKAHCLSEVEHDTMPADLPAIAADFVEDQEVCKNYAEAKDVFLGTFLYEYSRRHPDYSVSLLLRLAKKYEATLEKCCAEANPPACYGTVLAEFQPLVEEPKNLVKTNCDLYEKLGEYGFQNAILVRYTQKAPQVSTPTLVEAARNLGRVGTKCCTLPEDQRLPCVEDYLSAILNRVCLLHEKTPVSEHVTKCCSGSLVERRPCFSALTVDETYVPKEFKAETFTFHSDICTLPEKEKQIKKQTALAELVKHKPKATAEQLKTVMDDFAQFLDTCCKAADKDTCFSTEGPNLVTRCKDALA
BSA, sequence (P02769 25-607): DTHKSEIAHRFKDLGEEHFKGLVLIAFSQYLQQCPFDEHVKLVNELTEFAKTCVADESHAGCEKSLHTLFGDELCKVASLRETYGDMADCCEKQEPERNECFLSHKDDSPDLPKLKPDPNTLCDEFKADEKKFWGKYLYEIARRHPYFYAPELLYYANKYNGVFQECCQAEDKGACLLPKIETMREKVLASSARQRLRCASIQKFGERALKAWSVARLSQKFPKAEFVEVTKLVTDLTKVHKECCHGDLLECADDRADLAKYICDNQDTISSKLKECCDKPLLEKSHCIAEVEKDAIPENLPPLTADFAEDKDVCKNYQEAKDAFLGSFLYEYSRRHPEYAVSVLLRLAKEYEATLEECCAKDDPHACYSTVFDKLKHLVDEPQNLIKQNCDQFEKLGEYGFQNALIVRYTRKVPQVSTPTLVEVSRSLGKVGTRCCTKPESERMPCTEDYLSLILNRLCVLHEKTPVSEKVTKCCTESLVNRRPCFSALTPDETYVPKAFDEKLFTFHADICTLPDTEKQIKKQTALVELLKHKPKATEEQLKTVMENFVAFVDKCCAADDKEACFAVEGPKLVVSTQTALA

COc1cccc2c1C(=O)c1c(O)c3c(c(O)c1C2=O)CC(O)(C(=O)CO)CC3OC1CC(NC(=O)CNC(=O)C(CCCNC(=N)N)NC(=O)C(CCCNC(=N)N)NC(=O)C(Cc2ccccc2)NC(=O)CCOCCOCCNC(=O)CCN2C(=O)C=CC2=O)C(O)C(C)O1 (stereo not drawn) [Al-ProD]
formation of conjugate with HSA (SDS-PAGE band shift to 50-75 kDa) (HSA; room temperature, 1 h): formed a conjugate with each albumin | time to completion of conjugate formation with HSA (HSA; RP-HPLC, room temperature): ≤ 5 min | conjugate formation with thiol-blocked HSA (HSA; RP-HPLC, up to 60 min): not formed for 60 min | formation of conjugate with blocked HSA (SDS-PAGE) (HSA; thiol group of albumin blocked, 1 h): failed to form a conjugate with the blocked albumin | formation of conjugate with BSA (SDS-PAGE band shift to 50-75 kDa) (BSA): formed a conjugate with each albumin | formation of conjugate with blocked BSA (SDS-PAGE) (BSA; thiol group of albumin blocked): failed to form a conjugate with the blocked albumin | formation of conjugate with MSA (SDS-PAGE band shift to 50-75 kDa) (MSA): formed a conjugate with each albumin | formation of conjugate with blocked MSA (SDS-PAGE) (MSA; thiol group of albumin blocked): failed to form a conjugate with the blocked albumin | H&E staining of normal tissues (heart, lung, liver, kidney, and spleen) ([1]; day 20): no significant damage | change in body weight [1, 9]: no significant changes | accumulation / retention in cancer tissues (NIRF imaging) ([2]; 0-72 h): a considerable quantity of DOX was retained in cancer tissues even after 72 h | fluorescence from cancer tissues relative to free DOX group (NIRF in vivo) ([2]; 0-72 h after intravenous administration): 3.33-4.08 fold | DOX in excised cancer tissue sections (CLSM) ([2]; DAPI-stained sections): strong DOX fluorescence from cancer tissues | DOX fluorescence from excised cancer tissues relative to free DOX group ([2]; ex vivo, 12 h after intravenous administration): 3.41-4.92 fold | H&E and TUNEL staining of cancer tissues ([3]; day 20): induced significant damage to and apoptosis of cancer tissues | survival [3]: over 25 days | cancer volume [3]: 347.42 ± 25.9 mm^3 | T1/2 (FIG. 16): 3.1 h | extension of in vivo half-life ([4]; by binding to albumin in vivo): at least 3 times | time remained in vivo [4, 9]: 50 to 150 h | half-life ([4]; male, BALB/c nude, mouse, in vivo, 3 mg/kg, read-out: half-life (T½ (h))): ≥ 3 h | extension of in vivo residence time compared to the simple anticancer drug ([4]; vs free DOX): at least 12 times | increase of area under the curve (AUC) compared to free DOX ([4]; vs free DOX 3 mg/kg): 7 fold

COc1cccc2c1C(=O)c1c(O)c3c(c(O)c1C2=O)C[C@@](O)(C(=O)CO)C[C@@H]3O[C@H]1C[C@H](N)[C@H](O)[C@H](C)O1 [Free DOX]
T1/2 (FIG. 16): 0.25 h

COc1cccc2c1C(=O)c1c(O)c3c(c(O)c1C2=O)C[C@@](O)(C(=O)CO)C[C@@H]3O[C@H]1C[C@H](N)[C@H](O)[C@H](C)O1 [free DOX, doxorubicin, reference compound]
cytotoxicity [5]: significant cytotoxicities | intracellular location of DOX fluorescence [6]: penetrated the nuclei of both cancer cells and normal cells | cytotoxicity [7]: significant cytotoxicities | H&E staining of normal tissues (heart, lung, liver, kidney, and spleen) ([1]; mouse, in vivo): significant structural abnormalities were observed in all tissues | intracellular location of DOX fluorescence [8]: penetrated the nuclei of both cancer cells and normal cells | DOX in excised cancer tissue sections (CLSM) ([2]; mouse, in vivo): a very small quantity | day on which more than half of the animals had died ([3]; death from systemic toxicity): 15 days | survival [3]: ≤ 18 days | cancer volume [3]: 580.25 ± 139.92 mm^3

FRRG(SEQ ID NO: 1)-DOX (FRRG-{DOX}) [reference compound]
formation of conjugate with HSA (SDS-PAGE band shift to 50-75 kDa) (HSA; room temperature, 1 h): did not form conjugates with any albumin | formation of conjugate with BSA (SDS-PAGE band shift to 50-75 kDa) (BSA): did not form conjugates with any albumin | formation of conjugate with MSA (SDS-PAGE band shift to 50-75 kDa) (MSA): did not form conjugates with any albumin
